Measured values reported in patent US8546383B2, “Chiral fused [1,2]imidazo[4,5-c] ring compounds” (3M Innovative Properties Company, priority 2004, dated 2013).
Counter-ions that a name gives are not always drawn.

SMILES	melting point
C[C@@H]1COCc2nc3c(N)nc4c(c3n21)CCCC4 [Example 27]	209 to 211 °C
C[C@H]1COCc2nc3c(N)nc4cc(OCc5ccccc5)ccc4c3n21 [Example 7, (11S)-3-(Benzyloxy)-11-methyl-10,11-dihydro-8H-[1,4]oxazino[4′,3′:1,2]imidazo[4,5-c]quinolin-6-amine]	218 to 220 °C
CN1CCN(C[C@H]2COCc3nc4c(N)nc5ccccc5c4n32)CC1 [Example 37, (11S)-11-[(4-Methylpiperazin-1-yl)methyl]-10,11-dihydro-8H-[1,4]oxazino[4′,3′:1,2]imidazo[4,5-c]quinolin-6-amine]	187 to 190 °C
C[C@H](O)[C@H]1COCc2nc3c(N)nc4ccccc4c3n21 [Example 41, (1S)-1-[(11R)-6-amino-10,11-dihydro-8H-[1,4]oxazino[4′,3′:1,2]imidazo[4,5-c]quinolin-1′-yl]ethanol]	207.6 to 208.7 °C
Nc1nc2ccccc2c2c1nc1n2[C@@H](COCc2ccccc2)COC1 [Example 34, (11S)-11-[(Benzyloxy)methyl]-10,11-dihydro-8H-[1,4]oxazino[4′,3′:1,2]imidazo[4,5-c]quinolin-6-amine]	184.6 to 186.2 °C
Nc1nc2ccccc2c2c1nc1n2[C@@H](CO)COC1 [Example 35, [(11S)-6-Amino-10,11-dihydro-8H-[1,4]oxazino[4′,3′:1,2]imidazo[4,5-c]quinolin-11-yl]methanol]	238.6 to 239.8 °C
CC(C)(F)[C@H]1COCc2nc3c(N)nc4ccccc4c3n21 [Example 11, (11R)-11-(1-Fluoro-1-methylethyl)-10,11-dihydro-8H-[1,4]oxazino[4′,3′:1,2]imidazo[4,5-c]quinolin-6-amine]	242 to 244 °C
CC(C)[C@H]1COCc2nc3c(N)nc4ccccc4c3n21 [Example 1, (11S)-1′-Isopropyl-10,11-dihydro-8H-[1,4]oxazino[4′,3′:1,2]imidazo[4,5-c]quinolin-6-amine]	249 to 250 °C
CC(C)[C@H]1COCc2nc3c(N)nc4ccc(O)cc4c3n21 [Example 20, (11S)-6-Amino-11-isopropyl-10,11-dihydro-8H-[1,4]oxazino[4′,3′:1,2]imidazo[4,5-c]quinolin-2-ol]	208 to 210 °C
C[C@H]1CN(S(C)(=O)=O)Cc2nc3c(N)nc4ccccc4c3n21 [Example 23, (11S)-11-Methyl-9-(methylsulfonyl)-8,9,10,11-tetrahydropyrazino[1′,2′:1,2]imidazo[4,5-c]quinolin-6-amine]	258 to 261 °C
C[C@H]1COCc2nc3c(N)nc4ccc(O)cc4c3n21 [Example 21, (11S)-6-Amino-11-methyl-10,11-dihydro-8H-[1,4]oxazino[4′,3′:1,2]imidazo[4,5-c]quinolin-2-ol]	262 to 264 °C
C[C@@H](O)[C@H]1COCc2nc3c(N)nc4ccccc4c3n21 [Example 39, (1R)-1-[(11R)-6-Amino-10,11-dihydro-8H-[1,4]oxazino[4′,3′:1,2]imidazo[4,5-c]quinolin-11-yl]ethanol]	215.3 to 218.6 °C
c1ccc2c(c1)ncc1nc3n(c12)[C@@H](C1CCOCC1)COC3 [Example 42, (11S)-11-Tetrahydro-2H-pyran-4-yl-10,11-dihydro-8H-[1,4]oxazino[4′,3′:1,2]imidazo[4,5-c]quinoline]	234 to 237 °C

Now from value to compound:

melting point	SMILES
187 to 188 °C	CCOc1ccc2nc(N)c3nc4n(c3c2c1)[C@@H](C)COC4 [Example 57, (11S)-2-Ethoxy-11-methyl-10,11-dihydro-8H-[1,4]oxazino[4′,3′:1,2]imidazo[4,5-c]quinolin-6-amine]
226 to 228 °C	C[C@H]1COCc2nc3c(N)nc4ccc(OCC(=O)N5CCOCC5)cc4c3n21 [Example 55, (11S)-11-Methyl-2-(2-morpholin-4-yl-2-oxoethoxy)-10,11-dihydro-8H-[1,4]oxazino[4′,3′:1,2]imidazo[4,5-c]quinolin-6-amine]
105 to 107 °C	Cc1nc(COc2ccc3nc(N)c4nc5n(c4c3c2)[C@@H](C)COC5)cs1 [Example 52, (11S)-11-Methyl-2-[(2-methyl-1,3-thiazol-4-yl)methoxy]-10,11-dihydro-8H-[1,4]oxazino[4′,3′:1,2]imidazo[4,5-c]quinolin-6-amine]
218 to 219 °C	C[C@H]1COCc2nc3c(N)nc4ccc(OC(=O)N5CCCC5)cc4c3n21 [Example 53, (11S)-6-Amino-11-methyl-10,11-dihydro-8H-[1,4]oxazino[4′,3′:1,2]imidazo[4,5-c]quinolin-2-ylpyrrolidine-1-carboxylate]
115 to 130 °C	COc1ccc(C[C@H]2COCc3nc4c(N)nc5ccccc5c4n32)cc1 [Example 49, (11S)-11-(4-Methoxybenzyl)-10,11-dihydro-8H-[1,4]oxazino[4′,3′:1,2]imidazo[4,5-c]quinolin-6-amine]
137 to 139 °C	CC(C)[C@H]1COCc2nc3c(N)nc4cc(OCC(=O)N5CCOCC5)ccc4c3n21 [Example 58, (11S)-11-Isopropyl-3-(2-morpholin-4-yl-2-oxoethoxy)-10,11-dihydro-8H-[1,4]oxazino[4′,3′:1,2]imidazo[4,5-c]quinolin-6-amine]
205 to 206 °C	C[C@H]1COCc2nc3c(N)nc4cc(CCS(C)(=O)=O)ccc4c3n21 [Example 61, (11S)-11-Methyl-3-[2-(methylsulfonyl)ethyl]-10,11-dihydro-8H-[1,4]oxazino[4′,3′:1,2]imidazo[4,5-c]quinolin-6-amine]
> 240 °C (dec.)	Nc1nc2ccccc2c2c1nc1n2[C@@H](Cc2ccc(O)cc2)COC1 (as salt: hydrochloride) [Example 48, 4-{[(11S)-6-Amino-10,11-dihydro-8H-[1,4]oxazino[4′,3′:1,2]imidazo[4,5-c]quinolin-11-yl]methyl}phenol]
186 to 188 °C	C[C@H]1COCc2nc3c(N)nc4ccc(OCCN5CCOCC5)cc4c3n21 [Example 56, (11S)-11-Methyl-2-(2-morpholin-4-ylethoxy)-10,11-dihydro-8H-[1,4]oxazino[4′,3′:1,2]imidazo[4,5-c]quinolin-6-amine]
